{"source": "paper PMC5908784", "about": "“Extracellular loops 2 and 3 of the calcitonin receptor selectively modify agonist binding and efficacy” (Biochemical Pharmacology, 2018)", "assay_in_all_cases": "Heterologous whole cell competition binding", "conditions_in_all_cases": "heterologous competition of 125I-sCT(8-32), whole cells, mean ± S.E.M., SEM", "key": {"hCTR F356A": {"molecular_target": "T1, hCTR F356A (Homo sapiens, UniProt P30988, F356A)", "T1 construct": "c-Myc (N); expressed in transfected cells", "T1 sequence (P30988 25-474 F356A)": "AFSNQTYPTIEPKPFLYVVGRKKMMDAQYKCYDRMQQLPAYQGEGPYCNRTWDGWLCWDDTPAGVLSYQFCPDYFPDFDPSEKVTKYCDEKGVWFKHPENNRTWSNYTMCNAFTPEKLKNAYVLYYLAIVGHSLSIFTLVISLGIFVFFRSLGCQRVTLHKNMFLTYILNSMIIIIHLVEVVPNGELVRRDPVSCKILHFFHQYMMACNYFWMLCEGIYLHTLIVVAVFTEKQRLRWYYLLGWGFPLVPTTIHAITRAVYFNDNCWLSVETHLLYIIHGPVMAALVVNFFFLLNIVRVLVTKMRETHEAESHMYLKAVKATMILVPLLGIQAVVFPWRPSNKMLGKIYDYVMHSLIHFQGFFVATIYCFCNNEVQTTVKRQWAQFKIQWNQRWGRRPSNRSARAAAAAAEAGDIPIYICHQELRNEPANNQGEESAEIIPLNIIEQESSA", "in_short": "(§1)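 Gamma counter read-out of bound radioactivity after overnight incubation and removal of non-bound ligand. Affinities are given as pKi, derived with Cheng-Prusoff correction.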"}, "hCTR D373A": {"molecular_target": "T2, hCTR D373A (Homo sapiens, UniProt P30988, D373A)", "T2 construct": "c-Myc (N); expressed in transfected cells", "T2 sequence (P30988 25-474 D373A)": "T1 sequence (P30988 25-474 F356A) with A332F, D349A", "in_short": "as §1"}, "hCTR V283A": {"molecular_target": "T3, hCTR V283A (Homo sapiens, UniProt P30988, V283A)", "T3 construct": "expressed in transfected cells", "T3 sequence (P30988 25-474 V283A)": "T1 sequence (P30988 25-474 F356A) with V259A, A332F", "in_short": "as §1"}, "hCTR L298A": {"molecular_target": "T4, hCTR L298A (Homo sapiens, UniProt P30988, L298A)", "T4 construct": "c-Myc (N); expressed in transfected cells", "T4 sequence (P30988 25-474 L298A)": "T1 sequence (P30988 25-474 F356A) with L274A, A332F", "in_short": "as §1"}, "hCTR H296A": {"molecular_target": "T5, hCTR H296A (Homo sapiens, UniProt P30988, H296A)", "T5 construct": "c-Myc (N); expressed in transfected cells", "T5 sequence (P30988 25-474 H296A)": "T1 sequence (P30988 25-474 F356A) with H272A, A332F", "in_short": "as §1"}}, "note": "Positions count from the first letter of the chain named. Where a SMILES comes first, the peptide text is derived from it. Bridges are numbered along the chain shown (N, C = ends).", "data": [{"smiles": "CSCC[C@H](NC(=O)CNC(=O)[C@H](CO)NC(=O)[C@H](Cc1ccccc1)NC(=O)[C@H](CCCNC(=N)N)NC(=O)[C@H](Cc1c[nH]cn1)NC(=O)[C@H](Cc1ccccc1)NC(=O)[C@H](CC(N)=O)NC(=O)[C@H](CC(N)=O)NC(=O)[C@H](CC(C)C)NC(=O)[C@H](CC(N)=O)NC(=O)[C@H](CCCNC(=N)N)NC(=O)[C@H](Cc1c[nH]c2ccccc12)NC(=O)[C@H](Cc1ccc(O)cc1)NC(=O)[C@H](C)NC(=O)[C@H](CO)NC(=O)[C@H](CC(C)C)NC(=O)[C@@H](NC(=O)[C@@H]1CSSC[C@H](N)C(=O)N[C@@H](CO)C(=O)N[C@@H](CC(N)=O)C(=O)N[C@@H](CC(C)C)C(=O)N[C@@H](CO)C(=O)N[C@@H]([C@@H](C)O)C(=O)N1)C(C)C)C(=O)NCC(=O)N[C@@H](Cc1ccccc1)C(=O)NCC(=O)N1CCC[C@H]1C(=O)N[C@@H](CCC(=O)O)C(=O)N[C@H](C(=O)N1CCC[C@H]1C(N)=O)[C@@H](C)O", "note": "[pCT] (H-CSNLSTCVLSAYWRNLNNFHRFSGMGFGPETP-NH2; disulfide 1-7)", "values": [{"measurement": "Ki", "setting": "hCTR F356A", "value": 12, "unit": "nM"}, {"measurement": "Ki", "setting": "hCTR D373A", "value": 17.4, "unit": "nM"}, {"measurement": "Ki", "setting": "hCTR V283A", "value": 15.1, "unit": "nM"}, {"measurement": "Ki", "setting": "hCTR L298A", "value": 20.4, "unit": "nM"}, {"measurement": "Ki", "setting": "hCTR H296A", "value": 8.51, "unit": "nM"}]}]}
